Columns and labels:
[1] = system: ethanol-induced gastric lesions; assay: Ethanol-induced gastric lesions (80% aqueous ethanol challenge), part A; type: in vivo, rat; conditions: rats; for gastric ulceration: oral 0.3, 1, 3, or 10 mg/kg, 30 min before 1 ml 80% ethanol, examined 1 hr later
Procedure: A. Four groups of rats, standard laboratory animals for determining cytoprotective effects of pharmacological agents, are fasted for 24 hr and then treated orally with (a) […], (b) cimetidine, (c) a cytoprotective prostaglandin, or (d) vehicle (10% Emulphor, 10% EtOH, 80% water). Thirty min later, the rats are challenged with an oral 1 ml dose of 80% aqueous ethanol, a standard agent for inducing gastric cytodestruction. One hr later, the rats are sacrificed (carbon dioxide asphyxiation) and the gastric tissues examined.

[2] = system: Cytoprotection Against Acidified Aspirin; conditions: Robert, Gastroenterology 76:1227 (1979); cited from earlier work
[3] = system: gastric secretion; conditions: in vivo; cited from earlier work
[4] = system: Indomethacin-Induced Small Bowel Ulceration; conditions: rat; Kauffman et al. (1979), title; cited from earlier work
[5] = system: gastric acid secretion; assay: Inhibition of pentagastrin-stimulated gastric acid secretion in conscious gastric fistula dogs; type: in vivo; conditions: Canis lupus familiaris, dog, intraduodenal, read-out: Effect % inhibition (peak inhibitory effect on gastric acid secretion)
Procedure: To determine the gastric acid secretion inhibitory properties, experiments have been performed on conscious dogs provided with gastric fistulas of conventional type and duodenal fistules, the latter ones used for direct introduodenal administration of the test compounds. After 18 hours starvation and deprivation of water the dogs were given subcutaneous infusion of pentagastrin (1-4 nmol/kg, h) lasting for 6-7 hours. Gastric juice was collected in consecutive 30 minutes samples. An aliquot of each sample was titrated with 0.1 N NaOH to […] for titrable acid concentration using an automatic titrator and pH-meter (Radiometer, Copenhagen, Denmark). Acid output was calculated as mmol H^+ /60 minutes. The percent inhibition compared to control experiments was calculated for each compound and the peak inhibitory effect is given in Table 2 below. The test compounds, suspended in 0.5% Methocel® (methyl cellulose), were given intraduodenally in doses from 4-20 μmol/kg when the secretory response to pentagastrin has reached a steady level. In the test prior known compounds were compared with the compounds of the present invention as will be evident from the Table 2 below. The following gastric acid inhibiting effect data were obtained for a number of compounds tested according to the method described.

[6] = system: thermally induced gastric ulceration; assay: Thermally induced gastric ulceration (boiling water); type: in vivo, rat; conditions: for ulcer incidence score (ulcers/stomach): rats, control score 8.0
[7] = system: ethanol-induced gastric ulceration; assay: Ethanol-induced gastric ulceration, less irritant vehicle, lowest dose protecting 50% of animals, part C; type: in vivo, rat; conditions: rats
Description: C. […] The rats are sacrificed one hr after timoprazole administration and the extent of gastric ulceration determined.

[8] = system: ethanol-induced gastric lesions; assay: Ethanol challenge with or without indomethacin pretreatment, part D; type: in vivo, rat; conditions: timoprazole 5 mg/kg orally, indomethacin 1 hr prior
Procedure: D. Because mild gastric irritants, e.g., 20% ethanol, are known to stimulate endogenous prostaglandin production, with consequent cytoprotection effects being observed, a further experiment is undertaken to determine whether timoprazole acts as a mild irritant (i.e., by stimulating endogenous cytoprotective prostaglandin production), or exerts a directly cytoprotective effect. In this experiment, rats are treated with timoprazole (5 mg/kg orally), but in each group of rats half the animals are pretreated with a NOSAC, indomethacin, 1 hr prior to treatment with timoprazole. One hr after ethanol challenge, the rats are sacrificed. […] Accordingly, the cytoprotective effects of timoprazole are not mediated by endogenous prostaglandin production.

[9] = system: gastric acid secretion; assay: Gastric acid secretion inhibition in the rat; type: in vivo
[10] = Gastric volume / gastric emptying experiment, part B; type: in vivo, rat; conditions: rats, oral 0.01, 0.1, or 1.0 mg/kg; 5, 15, and 30 min after ingestion
Procedure: B. A further experiment is undertaken to rule out gastric emptying as a factor in the cytoprotection observed in part A above. In this experiment timoprazole was given orally at 0.01, 0.1, or 1.0 mg/kg to groups of rats and a further group of rats is treated with vehicle (same as in part A) only. As above, the rats are faster for 24 hr prior to treatment. Groups of rats are then sacrificed 5, 15, and 30 min after timoprazole ingestion. […] Accordingly, flluid accumulation in the stomach is not a factor in the cytoprotection observed in part A.

CN/C(=N/CCSCc1nc[nH]c1C)NC#N [cimetidine, N-cyano-N'-methyl-N"[2-[[(5-methyl-1H-imidazol-4-yl)methyl]thio]ethyl]gunanidine]
gastric ulceration [1]: all demonstrate gastric ulcers | number of ulcers ([1]; oral 0.3, 1.0, 3.0 or 10.0 mg/kg, 30 min before 80% ethanol): slight decrease in the number of ulcers | cytoprotective effects [2]: devoid of appreciable cytoprotective effects | inhibition of gastric secretion [3]: highly potent inhibitor of gastric secretion | inhibition of indomethacin-induced small bowel ulceration [4]: Does Not Inhibit

COC(=O)c1cc2nc([S+]([O-])Cc3cc(OC)c(C)cn3)[nH]c2cc1C (stereo not shown) [compound 18, 2-[2-(4-methoxy-5-methyl)-pyridylmethylsulfinyl]-(5-carbomethoxy-6-methyl)-benzimidazole]
inhibition in vivo at 0.5 µmol/kg ([5]; dose 0.5 μol/kg): 90%

[O-][S+](Cc1ccccn1)c1nc2ccccc2[nH]1 (stereo not shown) [timoprazole, 2-[2-pyridylmethylsulfinyl]benzimidazole]
inhibition in vivo at 4 µmol/kg [5]: 50% | gastric ulceration (dose 0.3 mg/kg) ([1]; oral 0.3 mg/kg, 30 min before 80% ethanol): traces of mild ulceration | gastric ulceration [1]: no gastric ulceration | ulcer incidence score (ulcers/stomach) ([6]; 0.3 mg/kg): 7.6 | ulcer incidence score (ulcers/stomach) ([6]; 1.0 mg/kg): 5.0 | ulcer incidence score (ulcers/stomach) ([6]; 3.0 mg/kg): 3.9 | ulcer incidence score (ulcers/stomach) ([6]; 10.0 mg/kg): 4.0 | incidence and severity of ulcers as compared to vehicle ([6]; rats, 0.3, 1.0, 3.0, and 10.0 mg/kg): uniform reduction in the incidence and severity of ulcers | ED50 ([7]; Rattus norvegicus, read-out: ED50 (lowest dose at which 50% of the animals treated exhibit no gastric ulceration), oral, vehicle 5% EtOH, 1% Emulphor in water): < 1 mg/kg | reduction in ulceration, oral administration ([7]; oral 1, 3, or 10 mg/kg, 30 min before ethanol challenge): significant reduction in ulceration at all dosages tested | reduction of number of ulcers, subcutaneous administration ([7]; subcutaneous 1, 3, or 10 mg/kg, 30 min before ethanol challenge): did not significantly reduce the number of ulcers | difference between rats receiving indomethacin and those not receiving it [8]: no significant difference | ED50 ([9]; in the rat): ~10 mg/kg | ED50 for gastric acid secretion inhibition relative to lowest cytoprotective dose observed ([9]; rat, ratio to lowest cytoprotective dose of part A): at least ten | changes in gastric volume versus vehicle [10]: No significant changes in gastric volume

Cc1cc(C)c2[nH]c([S+]([O-])Cc3ccccn3)nc2c1 (stereo not shown) [x (4-CH3,6-CH3, H, H, H, H), 2-[2-pyridylmethylsulfinyl]-(4,6-dimethyl)benzimidazole]
inhibition in vivo at 4 µmol/kg [5]: 30%

Reference: patent US4359465A, “Methods for treating gastrointestinal inflammation” (The Upjohn Company, priority 1980, dated 1982)
